According to patent US20190241569A1, “3-(ARYL OR HETEROARYL) METHYLENEINDOLIN-2-ONE DERIVATIVES AS INHIBITORS OF CANCER STEM CELL PATHWAY KINASES FOR THE TREATMENT OF CANCER” (Boston Biomedical, Inc., priority 2013, published 2019):
Counter-ions that a name gives are not always drawn.

Experiments:
[1] = molecular target: T1, human RIOK2 protein (Homo sapiens, UniProt Q9BVS4); assay: RIOK2 autophosphorylation ELISA (Test Example 4); format: biochemical; settings: for inhibition at 1 µM: read-out: Inhibitory activity at 1 μM (%); for inhibition at 10 µM: read-out: Inhibitory activity at 10 μM (%)
T1 construct: glutathione S-transferase is fused to N-terminal of a full-length human RIOK2 protein; GST (glutathione S-transferase) (N); purchased CarnaBio, Inc; host or cells: baculovirus-Sf21 cell expression system
T1 sequence (Q9BVS4 whole entry, the tested form may be a part): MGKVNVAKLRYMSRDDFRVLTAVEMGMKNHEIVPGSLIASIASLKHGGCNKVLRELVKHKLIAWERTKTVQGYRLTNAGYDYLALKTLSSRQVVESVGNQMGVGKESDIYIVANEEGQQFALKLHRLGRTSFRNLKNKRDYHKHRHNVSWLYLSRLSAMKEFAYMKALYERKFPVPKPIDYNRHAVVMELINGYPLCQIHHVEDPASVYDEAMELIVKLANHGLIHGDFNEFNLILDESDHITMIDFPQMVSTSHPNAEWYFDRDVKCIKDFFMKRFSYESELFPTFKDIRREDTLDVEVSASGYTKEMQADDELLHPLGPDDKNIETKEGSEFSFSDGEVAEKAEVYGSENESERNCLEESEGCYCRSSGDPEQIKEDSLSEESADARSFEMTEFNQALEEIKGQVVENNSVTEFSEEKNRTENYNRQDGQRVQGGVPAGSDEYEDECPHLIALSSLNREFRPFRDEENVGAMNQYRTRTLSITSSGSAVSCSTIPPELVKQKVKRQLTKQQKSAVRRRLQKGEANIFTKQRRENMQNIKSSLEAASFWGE
Description: A protein in which glutathione S-transferase is fused to N-terminal of a full-length human RIOK2 protein was used as a recombinant human RIOK2 protein. The protein was prepared using a baculovirus-Sf21 cell expression system from CarnaBio, Inc. A kinase reaction solution was prepared by mixing 25 μg/mL of the recombinant human RIOK2 protein and 100 μM of ATP in 20 μl of kinase reaction buffer (50 mM Tris-HCl, 10 mM MgCl2, 10 mM MnCl2, 1 mM DTT, 0.01% Brij, 1× PhosSTOP (manufactured by Roche Applied Science)), and was incubated at a temperature of 30° C. for 1 hour. After adding 30 μl of 40 mM EDTA solution to this kinase reaction solution, the kinase reaction solution was transferred to a MaxiSorp 96 well plate (manufactured by Nunc). Thereafter, phosphorylated human RIOK2 protein was allowed to adsorb onto the wells by leaving the plate in a refrigerator overnight.
The following day, the supernatant was removed, and the wells were washed three times with ELISA buffer (20 mM Tris-HCl, 150 mM NaCl, 0.2% Tween-20, 0.1% BSA). Thereafter, 100 μl of Blocking-One P (product name; manufactured by Nacalai Tesque, Inc.) was applied to the wells, and a blocking treatment was performed for 1 hour at room temperature. […] After further washing the wells, a secondary antibody, anti-rabbit IgG conjugated with horseradish peroxidase (manufactured by Jackson ImmunoResearch; 1/4000 ELISA buffer-diluted solution), was applied to the wells, and incubation was performed for 30 minutes at room temperature. After washing the wells once again, 50 μl of tetramethyl benzidine (TMB) aqueous solution (manufactured by Nacalai Tesque, Inc.) was applied to the wells, and a coloring reaction was performed for 30 minutes at room temperature. Thereafter, the coloring reaction was stopped by adding 50 μl of 2M H2SO4 to the wells. An absorptiometric level of 450 nm was measured in each well using ARVO SX (manufactured by Wallac).

[2] = system: FaDu CSC; assay: Cancer stem cells, Cell Titer-Glo 72 hours (Test Example 3); format: cell-based; settings: Homo sapiens, FaDu, 72 h
[3] = system: FaDu; assay: Bulk cancer cells, Cell Titer-Glo 72 hours (Test Example 2); format: cell-based; settings: Homo sapiens
Description: (§1) Tubes of 3× drug (60 uM in 500 uL complete media) were prepared from 5 mM stock solutions in DMSO. […] To treat cells, 50 uL of drug from the dilution plate was removed and added to the cell plates. […] Cells were harvested 72 hours after drug addition using Cell Titer-Glo (Promega) and luminescence measured on a plate reader.

[4] = system: A549; assay: as above; format: cell-based; settings: Homo sapiens
Description: as §1

[5] = system: A549 CSC; assay: Cancer stem cells, Cell Titer-Glo 72 hours (Test Example 3); format: cell-based; settings: Homo sapiens
[6] = system: ACHN; assay: Bulk cancer cells, Cell Titer-Glo 72 hours (Test Example 2); format: cell-based; settings: Homo sapiens, ACHN, 72 h
Description: as §1

Compound | inhibition at 1 µM [1] [%] | inhibition at 10 µM [1] [%] | IC50 [2] [nM] | IC50 [3] [µM] | IC50 [4] [µM] | IC50 [5] [nM] | IC50 [6] [µM]
Cc1[nH]c(/C=C2\C(=O)Nc3ccc(-c4cnn(-c5ccccc5)c4)cc32)c(C)c1C(=O)NC[C@@H]1CCCN1 [Example 101] | 13 | 94 |  |  |  |  | 
CCN(CC)CCNC(=O)c1c(C)[nH]c(/C=C2\C(=O)Nc3ccc(-c4ccnn4-c4ccc(C(F)(F)F)cc4)cc32)c1C [Example 60] | 9 | 68 |  |  |  |  | 
CCN(CC)CCNC(=O)c1c(C)[nH]c(/C=C2\C(=O)Nc3ccc(-c4cnn(-c5cnccn5)c4)cc32)c1C [Example 68] | 47 | 95 |  |  |  |  | 
Cc1[nH]c(/C=C2\C(=O)Nc3ccc(-c4cnn(-c5ccccc5)c4)cc32)c(C)c1C(=O)NC[C@H]1CCCN1 [Example 100] | 9 | 126 |  |  |  |  | 
Cc1[nH]c(/C=C2\C(=O)Nc3ccc(-c4cnn(-c5ccccc5)c4)cc32)c(C)c1C(=O)NC1[C@H]2CNC[C@@H]12 (stereo partly shown) [Example 95] | 22 | 134 |  |  |  |  | 
CCN(CC)CCNC(=O)c1c(C)[nH]c(/C=C2\C(=O)Nc3ccc(-c4cnn(-c5ccc(S(N)(=O)=O)cc5)c4)cc32)c1C [Example 74] | 26 | 71 |  |  |  |  | 
CCN(CC)CCNC(=O)c1c(C)[nH]c(/C=C2\C(=O)Nc3ccc(-c4ccnn4-c4ccncc4)cc32)c1C [Example 66] | -6 | 44 |  |  |  |  | 
Cc1[nH]c(/C=C2\C(=O)Nc3ccc(-c4cnn(-c5ccccc5)c4)cc32)c(C)c1C(=O)N[C@@H]1CCCNC1 [Example 89] | 22 | 130 |  |  |  |  | 
Cc1[nH]c(/C=C2\C(=O)Nc3ccc(-c4cnn(-c5ccccc5)c4)cc32)c(C)c1C(=O)NC1(CN2CCCCC2)CC1 [Example 97] | 6 | 107 |  |  |  |  | 
Cc1[nH]c(/C=C2\C(=O)Nc3ccc(-c4cnn(-c5ccccc5)c4)cc32)c(C)c1C(=O)NC1CNCC(c2ccccc2)C1 (stereo not shown) [Example 96] | -13 | 69 |  |  |  |  | 
Cc1[nH]c(/C=C2\C(=O)Nc3ccc(-c4ccc(-c5ccccc5)s4)cc32)c(C)c1C(=O)N1CCN(C)CC1 [Example 3] |  | 65 | 1160 | 25.4 |  |  | 
Cc1[nH]c(/C=C2\C(=O)Nc3ccc(-c4nnc(-c5ccccc5)s4)cc32)c(C)c1C(=O)N1CCN(C)CC1 [Example 2] |  | 19 | 230 | 14.1 | 48.9 |  | 
CCN(CC)CCNC(=O)c1c(C)[nH]c(/C=C2\C(=O)Nc3ccc(-c4ccnn4-c4cccc(C)c4)cc32)c1C [Example 61] | 29 | 137 |  |  |  |  | 
CCN(CC)CCNC(=O)c1c(C)[nH]c(/C=C2\C(=O)Nc3ccc(-c4cnn(-c5ccncn5)c4)cc32)c1C [Example 69] | 40 | 109 |  |  |  |  | 
CCN(CC)CCNC(=O)c1c(C)[nH]c(/C=C2\C(=O)Nc3ccc(-c4ccnn4-c4ccccc4F)cc32)c1C [Example 58] | 56 | 116 |  |  |  |  | 
CCN(CC)CCNC(=O)c1c(C)[nH]c(/C=C2\C(=O)Nc3ccc(-c4ccnn4-c4ccc(OC)cc4)cc32)c1C [Example 59] | 34 | 106 |  |  |  |  | 
CCN(CC)CCNC(=O)c1c(C)[nH]c(/C=C2\C(=O)Nc3ccc(-c4ccnn4-c4ccc(F)cc4)cc32)c1C [Example 57] | 39 | 104 |  |  |  |  | 
CCN(CC)CCNC(=O)c1c(C)[nH]c(/C=C2\C(=O)Nc3ccc(-c4ccnn4-c4ccc(Cl)c(Cl)c4)cc32)c1C [Example 65] | 18 | 87 |  |  |  |  | 
Cc1[nH]c(/C=C2\C(=O)Nc3ccc(-c4cnn(-c5ccccc5)c4)cc32)c(C)c1C(=O)NCc1nc2ccccc2[nH]1 [Example 99] | -11 | 79 |  |  |  |  | 

Compound | inhibition at 1 µM [1] [%] | inhibition at 10 µM [1] [%] | IC50 [2] [nM] | IC50 [3] [µM] | IC50 [4] [µM] | IC50 [5] [nM] | IC50 [6] [µM]
CCN(CC)CCNC(=O)c1c(C)[nH]c(/C=C2\C(=O)Nc3ccc(-c4ccnn4-c4ccccn4)cc32)c1C [Example 63] | 14 | 93 |  |  |  |  | 
CCN(CC)CCNC(=O)c1c(C)[nH]c(/C=C2\C(=O)Nc3ccc(-c4cnn(-c5ncccn5)c4)cc32)c1C [Example 70] | 42 | 112 |  |  |  |  | 
CCN(CC)CCNC(=O)c1c(C)[nH]c(/C=C2\C(=O)Nc3ccc(-c4ncc(-c5ccccc5)o4)cc32)c1C [Example 19] | 32 | 56 | 27600 | 7.35 |  | 350 | 
CCN(CC)CCCNC(=O)c1c(C)[nH]c(/C=C2\C(=O)Nc3ccc(-c4cnn(-c5ccccc5)c4)cc32)c1C [Example 90] | 20 | 96 |  |  |  |  | 
CCN(CC)CCNC(=O)c1c(C)[nH]c(/C=C2\C(=O)Nc3ccc(-c4cnn(-c5cscn5)c4)cc32)c1C [Example 72] | 41 | 99 |  |  |  |  | 
CCN(CC)CCNC(=O)c1c(C)[nH]c(/C=C2\C(=O)Nc3ccc(-c4cnn(-c5ccccc5Cl)c4)cc32)c1C [Example 71] | 4 | 99 |  |  |  |  | 
CCN(CC)CCNC(=O)c1c(C)[nH]c(/C=C2\C(=O)Nc3ccc(-c4ccnn4-c4cccc(OC)c4)cc32)c1C [Example 62] | 51 | 98 |  |  |  |  | 
Cc1[nH]c(/C=C2\C(=O)Nc3ccc(-c4cnn(-c5ccccc5)c4)cc32)c(C)c1C(=O)NC1CCNCC1 [Example 94] | 17 | 140 |  |  |  |  | 
Cc1[nH]c(/C=C2\C(=O)Nc3ccc(-c4cnn(-c5ccccc5)c4)cc32)c(C)c1C(=O)NCC1(N)CCCC1 [Example 93] | 7 | 65 |  |  |  |  | 
CCN(CC)CCNC(=O)c1c(C)[nH]c(/C=C2\C(=O)Nc3ccc(-c4cnn(-c5ccccc5)c4)cc32)c1C [Example 4] | 45 | 94 | 600 | 6.25 | 5.35 | 4830 | 2.28
CCN(CC)CCN(C)C(=O)c1c(C)[nH]c(/C=C2\C(=O)Nc3ccc(-c4cnn(-c5ccccc5)c4)cc32)c1C [Example 92] | 3 | 113 |  |  |  |  | 
CCN(CC)CCNC(=O)c1c(C)[nH]c(/C=C2\C(=O)Nc3ccc(-c4cnn(C5CCOCC5)c4)cc32)c1C [Example 47] | 32 | 68 | 2570 | 4.22 | 16 |  | 10.4
CCN(CC)CCNC(=O)c1c(C)[nH]c(/C=C2\C(=O)Nc3ccc(-c4cnn(-c5nccs5)c4)cc32)c1C [Example 73] | 18 | 111 |  |  |  |  | 
CCOCCCNC(=O)c1c(C)[nH]c(/C=C2\C(=O)Nc3ccc(-c4cnn(-c5ccccc5)c4)cc32)c1C [Example 91] | -7 | 43 |  |  |  |  | 
CCN(CC)CCNC(=O)c1c(C)[nH]c(/C=C2\C(=O)Nc3ccc(-c4cnn(-c5cccnc5)c4)cc32)c1C [Example 79] | 42 | 82 |  |  |  |  | 
Cc1[nH]c(/C=C2\C(=O)Nc3ccc(-c4cnn(-c5ccccc5)c4)cc32)c(C)c1C(=O)NCCc1ncc[nH]1 [Example 98] | -2 | 25 |  |  |  |  | 
Cc1[nH]c(/C=C2\C(=O)Nc3ccc(-c4cnn(-c5ccccc5)c4)cc32)c(C)c1C(=O)N[C@H]1CCCNC1 [Example 88, (S,Z)-2,4-dimethyl-5-((2-oxo-5-(1-phenyl-1H-pyrazol-4-yl)indolin-3-ylidene)methyl)-N-(piperidin-3-yl)-1H-pyrrole-3-carboxamide hydrochloride] | 1.4 | 122 |  |  |  |  | 
CCN(CC)CCNC(=O)c1c(C)[nH]c(/C=C2\C(=O)Nc3ccc(-c4ccc(-c5ccccc5)s4)cc32)c1C [Example 1, (Z)-N-(2-(diethylamino)ethyl)-2,4-dimethyl-5-((2-oxo-5-(5-phenylthiophen-2-yl)indolin-3-ylidene)methyl)-1H-pyrrole-3-carboxamide] |  | 14 | 1200 | 4.74 |  |  | 7.6
